In paper PMC5686155, “Crystal structures of the mitochondrial deacylase Sirtuin 4 reveal isoform-specific acyl recognition and regulation features” (Nature Communications, 2017):
Values joined by “and” are separate entries in the source; they are usually repeats but may differ in a detail not shown here. Equal values may be shown once.

Legend:
[1] = molecular target: T1, hSirt4 (Homo sapiens, UniProt Q9Y6E7); experiment: HMG-FdL (Fluor-de-Lys-like) de-HMG-ylation assay; format: biochemical; conditions: HMG-FdL assay, 1 µM hSirt4, 500 µM HMG-FdL substrate, 500 μM NAD+, 37 °C, 20 min; fluorescence; n = 2; NADH corrected through spiking controls
T1 construct: hSirt4(25–314) in pQE30 coding for an N-terminal His6-tag; His6 (N); made in house; host or cells: Escherichia coli CodonPlus(DE3)
T1 sequence (Q9Y6E7 25-314): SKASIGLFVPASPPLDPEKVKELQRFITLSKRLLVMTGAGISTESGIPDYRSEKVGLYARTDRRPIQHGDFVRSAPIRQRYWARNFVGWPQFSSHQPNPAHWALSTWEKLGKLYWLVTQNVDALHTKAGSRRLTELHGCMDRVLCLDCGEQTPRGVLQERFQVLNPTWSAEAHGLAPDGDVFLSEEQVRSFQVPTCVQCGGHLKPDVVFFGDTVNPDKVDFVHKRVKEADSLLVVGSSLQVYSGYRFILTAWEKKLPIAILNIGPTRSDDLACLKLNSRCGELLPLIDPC
Experimental: As a convenient and complementary, fluorescence-based alternative to the coupled enzymatic assay with HMG-peptides, we established substrate and assay corresponding to the popular “Fluor-de-Lys” (FdL) deacylation assays. […] We then employed the FdL-like Sirt4 assay for studying the effects of NAM and NADH, which are not compatible with the coupled assay. […] After 20 min, developer solution (2 mM NAM and 10 mg mL^−1 trypsin) in assay buffer was added 1:1 and samples were incubated for 45 min at room temperature. Fluorescence was measures using a FluoDia T70 with excitation wavelength 365 nm and emission wavelength 465 nm.

[2] = molecular target: T2, Sirt4 (Homo sapiens, UniProt Q9Y6E7); experiment: MS-based Sirt4 inhibition assay with HMG-CPS1 substrate; format: biochemical; conditions: n = 2 (Supplementary Fig. 4b)
T2 construct: hSirt4(25–314) in pQE30 coding for an N-terminal His6-tag; His6 (N); made in house; host or cells: Escherichia coli CodonPlus(DE3)
T2 sequence (Q9Y6E7 25-314): T1 sequence (Q9Y6E7 25-314)
Experimental: For MS and UV analyzes of deacylation reactions, samples were prepared as described for the coupled continuous assay, stopped by mixing 1:1 with 0.5% TFA after 0 and 60 min, diluted to 20 µM peptide using 0.1% FA, and analyzed by HPLC-separation using a Shimadzu Prominence UFLC (Shimadzu, Duisburg, Germany) coupled to ESI-MS and UV detection. Samples were washed on a Piccolo Proto 200 C4 5 μm 2.5 × 0.5 mm trap column (Higgins Analytical, Mountain View, California) and subsequently subjected to a Jupiter C4 5 μm 300 Å 150 × 1 mm analytical column (Phenomenex, Torrance, California) for reversed phase separation, with 99.9% H2O, 0.1% TFA as buffer A and 99.9% ACN, 0.1% TFA as buffer B. Peptides were eluted over a 20 min gradient from 1 to 55% buffer B, followed by 1 min from 55 to 90% buffer B with 70 µL min^−1 flow-rate. UV-detection was done using a Shimadzu SPD-20A detector at 280 nm. MS analysis was performed by ESI-TOF-MS on an AB Sciex TripleTOF 5600+ mass spectrometer (Sciex, Darmstadt, Germany) with a DuoSpray Ion Source using the following settings: floating voltage of 5500 V and declustering potential of 100 with one TOF experiment summing over four time bins. We detected in a mass range from 300 to 2500 m/z. […]

[3] = system: other sirtuins; conditions: cited from earlier work
[4] = molecular target: T1, hSirt4; experiment: Coupled continuous enzymatic assay monitoring NAM release from NAD+ (Sirt4 deacylation); format: biochemical; conditions: hSirt4 wild-type
Experimental: The seven mammalian sirtuins vary in their sequence and acyl preferences[16],[19]. […] We therefore asked whether other acyl modifications would yield deacylation efficiencies expected for a physiologically dominant Sirt4 activity.
(§1) The coupled continuous assay was performed as reported. […] Reactions were monitored in microplates at room temperature for 1 h through absorption measurements at 340 nm in a LAMBDAScan plate reader (MWG Biotech, Ebersberg, Germany).

[5] = system: xSirt4 Wild-type; experiment: Coupled continuous assay, xSirt4 wild-type; format: biochemical, Xenopus tropicalis; conditions: HMG-CPS1 peptide substrate, n = 2
Experimental: The coupled continuous assay was performed as reported. Briefly, assays in 20 mM sodium phosphate buffer pH 7.8 contained 5 µM hSirt4 or 3–5 µM xSirt4, 0.05 mg ml^−1 nicotinamidase, 2 U ml^–1 GDH, 3.3 mM a-ketoglutarate, 0.2 mM NADPH, 10% DMSO, and NAD^+ at 2 mM or as indicated, and substrate peptide at 500 µM or as indicated. Reactions were monitored in microplates at room temperature for 1 h through absorption measurements at 340 nm in a LAMBDAScan plate reader (MWG Biotech, Ebersberg, Germany).

[6] = system: xSirt4 Delta 198–203; experiment: Coupled continuous assay, xSirt4 variant; format: biochemical, Xenopus tropicalis; conditions: Sirt4 loop deletion variant (198-203), HMG-CPS1 peptide substrate; n = 2
Experimental: For xSirt4(32–315) and zSirt4(29–310) eluted from the NiNTA material, the buffer was changed to 50 mM Tris/HCl pH 7.5, 200 mM NaCl, (supplemented with 20% glycerol for xSirt4) in a HiPrep Desalting column and subjected to Senp2-proteolysis for 30 min on ice. The protein was loaded on a HisTrap HP 1 mL column (GE Healthcare) and eluted with 50 mM Tris/HCl pH 7.5, 200 mM NaCl, 30–50 mM imidazole. It was subsequently subjected to gel filtration on a Superdex 75 10/300 GL (xSirt4) or Superdex 200 10/300 GL (zSirt4) column (both GE Healthcare) in 25 mM Tris/HCl pH 7.5, 150 mM NaCl (+20 % glycerol for xSirt4), concentrated in a Microsep concentrator, flash-frozen in liquid nitrogen, and stored at −80 °C. xSirt4 single-site variants were generated using the QuickChange protocol (see Supplementary Table 1 for primer sequences) and verified by DNA sequencing, and the proteins were produced as described for wild-type xSirt4.
as §1

[7] = system: xSirt4; experiment: Thermal denaturation shift assay; format: binding, Xenopus tropicalis; conditions: 3 µM xSirt4, SYPRO orange, 20 to 73 °C; n = 2
Experimental: Thermal shift assays were performed in 96-well PCR plates using 3 µM xSirt4 (32–315) or 3 µM zSirt4 (29–310) and SYPRO orange (Thermo Fisher, Waltham, MA, USA) covered with 15 µL mineral oil. Heating and fluorescence measurements were performed in a FluoDia T70 with 1 K steps from 20 to 73 °C (excitation: 465 nm, emission: 580 nm). The data were analyzed in GraFit (Erithacus Software Ltd, Horley, UK) by nonlinear fitting using a two state model.

[8] = system: sirtuins; conditions: cited from earlier work
Excerpt: All sirtuins share NAD^+ as an essential cosubstrate, but the Sirt4 nucleotide binding site differs from those of other isoforms. The Sirt4-loop tightens the entry of the C-site, where the conserved Asp145 recognizes the NAM moiety of NAD^+ [25], and its tip around Pro200 will have to rearrange slightly to allow productive NAD^+ binding (Supplementary Fig. 3c), consistent with a switch function.

| Structure (SMILES) | IC50 [1] | IC50 [2] | IC50 ([3]; other sirtuin isoforms, read-out: IC 50 on other sirtuins) | Ki ([3]; read-out: K i on other sirtuin isoforms) | K M (NAD+ titration) [4] | K M (NAD+ titration) [5] | K M (NAD+ titration) [6] | Sirt4 stabilization in thermal denaturation shift experiments [7] | K M(NAD+) range reported for sirtuins [8] |
| --- | --- | --- | --- | --- | --- | --- | --- | --- | --- |
| NC(=O)C1=CN([C@@H]2O[C@H](COP(=O)(O)OP(=O)(O)OC[C@H]3O[C@@H](n4cnc5c(N)ncnc54)[C@H](O)[C@@H]3O)[C@@H](O)[C@H]2O)C=CC1 [NADH] | 126 ± 12 µM | 142 ± 54 µM | 1300 to 27900 µM and ≥ 1300 µM | ≥ 700 µM |  |  |  |  |  |
| NC(=O)c1ccc[n+]([C@@H]2O[C@H](COP(=O)([O-])OP(=O)(O)OC[C@H]3O[C@@H](n4cnc5c(N)ncnc54)[C@H](O)[C@@H]3O)[C@@H](O)[C@H]2O)c1 [NAD^+] |  |  |  |  | 62 ± 14 µM | 70 ± 14 µM | 66 ± 9 µM | significant Sirt4 stabilization | 14 to 600 µM |
